Source: the NIST ThermoML archive (doi:10.1021/je501141e)
Values joined by “and” are separate entries in the source; they are usually repeats but may differ in a detail not shown here. Equal entries are not always repeated. ± gives the expanded uncertainty stated by the source.

Assays:
[1] = 101.33 kPa, Liquid; for viscosity: Concentric cylinders viscometry; for speed of sound: Sing-around technique in a fixed-path interferometer; for mass density: Vibrating tube method
[2] = xn = mol fraction of the nth substance listed; conditions: 100 kPa, Liquid, Concentric cylinders viscometry, x2 = 0

| SMILES | viscosity ([1]; 293.15 K) | speed of sound ([1]; 293.15 K) | mass density ([1]; 293.15 K) | viscosity ([1]; 303.15 K) | speed of sound ([1]; 303.15 K) | mass density ([1]; 303.15 K) | viscosity ([1]; 313.15 K) | speed of sound ([1]; 313.15 K) | mass density ([1]; 313.15 K) | viscosity ([1]; 323.15 K) | speed of sound ([1]; 323.15 K) | mass density ([1]; 323.15 K) | viscosity ([1]; 333.15 K) | speed of sound ([1]; 333.15 K) | mass density ([1]; 333.15 K) | viscosity ([1]; 343.15 K) | speed of sound ([1]; 343.15 K) | mass density ([1]; 343.15 K) | viscosity ([1]; 353.15 K) | mass density ([1]; 353.15 K) | other results |
| --- | --- | --- | --- | --- | --- | --- | --- | --- | --- | --- | --- | --- | --- | --- | --- | --- | --- | --- | --- | --- | --- |
| CC(CC(C)(C)C)CC(C)(C)CC(C)(C)C (configuration not stated) [2,2,4,4,6,8,8-heptamethylnonane] | 3.71 ± 0.03 mPa·s | 1285.8 ± 1.4 m/s | 784.48 ± 0.21 kg/m3 | 2.93 ± 0.03 mPa·s | 1248.6 ± 1.4 m/s | 777.78 ± 0.22 kg/m3 | 2.37 ± 0.03 mPa·s | 1212 ± 1.4 m/s | 771.07 ± 0.22 kg/m3 | 1.95 ± 0.02 mPa·s | 1176.2 ± 1.4 m/s | 764.34 ± 0.22 kg/m3 | 1.64 ± 0.02 mPa·s | 1141 ± 1.4 m/s | 757.59 ± 0.22 kg/m3 | 1.39 ± 0.02 mPa·s | 1106.5 ± 1.4 m/s | 750.83 ± 0.22 kg/m3 | 1.19 ± 0.02 mPa·s | 743.9 ± 0.4 kg/m3 | viscosity ([1]; 363.15 K): 1.04 ± 0.02 mPa·s; mass density ([1]; 363.15 K): 737 ± 0.4 kg/m3; viscosity ([1]; 373.15 K): 0.91 ± 0.02 mPa·s and 0.913 ± 0.021 mPa·s; mass density ([1]; 373.15 K): 730.2 ± 0.4 kg/m3 |
| CC(CC(C)(C)C)CC(C)(C)C [2,2,4,6,6-pentamethylheptane] + CC(CC(C)(C)C)CC(C)(C)CC(C)(C)C |  |  |  |  |  |  |  |  |  |  |  |  |  |  |  |  |  |  |  |  | viscosity ([2]; 293.15 K): 1.31 ± 0.02 mPa·s; viscosity ([2]; 303.15 K): 1.11 ± 0.02 mPa·s; viscosity ([2]; 313.15 K): 0.948 ± 0.021 mPa·s; viscosity ([2]; 323.15 K): 0.82 ± 0.021 mPa·s; viscosity ([2]; 333.15 K): 0.715 ± 0.021 mPa·s; viscosity ([2]; 343.15 K): 0.632 ± 0.021 mPa·s; viscosity ([2]; 353.15 K): 0.562 ± 0.021 mPa·s; viscosity ([2]; 363.15 K): 0.505 ± 0.021 mPa·s; viscosity ([2]; 373.15 K): 0.459 ± 0.021 mPa·s |
| CC(CC(C)(C)C)CC(C)(C)C [2,2,4,6,6-pentamethylheptane] | 1.31 ± 0.02 mPa·s | 1203.7 ± 1.3 m/s | 745.21 ± 0.19 kg/m3 | 1.11 ± 0.02 mPa·s | 1164.9 ± 1.3 m/s | 737.93 ± 0.19 kg/m3 | 0.94 ± 0.02 mPa·s and 0.948 ± 0.021 mPa·s | 1126.7 ± 1.2 m/s | 730.61 ± 0.19 kg/m3 | 0.82 ± 0.02 mPa·s | 1089.3 ± 1.2 m/s | 723.26 ± 0.19 kg/m3 | 0.715 ± 0.021 mPa·s and 0.71 ± 0.02 mPa·s | 1052.6 ± 1.2 m/s | 715.86 ± 0.2 kg/m3 | 0.632 ± 0.021 mPa·s and 0.63 ± 0.02 mPa·s | 1016.5 ± 1.2 m/s | 708.42 ± 0.2 kg/m3 | 0.562 ± 0.021 mPa·s and 0.56 ± 0.02 mPa·s | 700.7 ± 0.4 kg/m3 | viscosity ([1]; 363.15 K): 0.505 ± 0.021 mPa·s and 0.5 ± 0.02 mPa·s; mass density ([1]; 363.15 K): 693.1 ± 0.4 kg/m3; viscosity ([1]; 373.15 K): 0.459 ± 0.021 mPa·s and 0.45 ± 0.02 mPa·s; mass density ([1]; 373.15 K): 685.4 ± 0.4 kg/m3 |
